Tests used:
human TLR2 [1] = biological target: T1, human TLR2 (Homo sapiens, UniProt O60603); assay: HEK-Blue hTLR2 antagonism assay (SEAP reporter) with agonist Pam2CSK4 (TLR2/6 agonist); format: cell-based; settings: Table A; HEK-Blue hTLR2 cells, ~3×EC50 Pam2CSK4, 18 h, SEAP OD 655 nm, 8-point dilutions
T1 construct: host or cells: HEK-Blue hTLR2 (HEK-293)
Description: (§1) Synthetic diacylated lipoprotein (Pam2CSK4, TLR2/6 agonist) and synthetic triacylated lipoprotein (Pam3CSK4, TLR1/2 agonist) were obtained from InvivoGen and were dissolved in endotoxin-free water to a concentration 1 mg/mL, vortexed until complete solubilization, and stored in aliquots at −20° C. Prior to addition to cells, an aliquot of the dissolved ligand was vortexed shortly and then was diluted in medium to 25 ng/mL Pam2CSK4 or 1000 ng/mL Pam3CSK4.
(§2) Test compounds were solubilized fresh to 10-20 mM stocks in DMSO and sonicated for 5-10 minutes in a water bath sonicator. Serial dilutions were prepared in DMSO, and then diluted in medium. The final concentration of DMSO used in the assay was 1%.
(§3) HEK-Blue hTLR2 reporter cells (InvivoGen) are HEK-293 cells stably expressing both the human TLR2 gene and a secreted embryonic alkaline phosphatase (SEAP) reporter construct downstream of NFκB promotor sites. HEK-Blue hTLR2 reporters were cultured according to manufacturer's protocol using Dulbecco's Modified Eagle Medium (DMEM; Gibco) containing 1× GlutaMax (Gibco), 10% heat-inactivated Fetal Bovine Serum (Gibco), Pen-Strep (50 U/mL penicillin, 50 μg/mL streptomycin, Gibco), 100 μg/mL Normocin (InvivoGen), and the selective antibiotic, 1×HEK-Blue Selection (InvivoGen). Quanti-Blue reagent (InvivoGen) for detection and quantification of secreted alkaline phosphatase was dissolved in 100 mL of endotoxin-free water, warmed to 37° C. for 30 minutes and then filtered using a 0.2 μm membrane.
(§4) On day 1, 50 μL of each test compound dilution in duplicates or a vehicle control was added to each well of a 96-well plate followed by addition of 150 μL of HEK-Blue hTLR2 cell suspension (1×10^5 cells/well) and incubated at 37° C./5% CO2 for 2 h. Next, 50 μL of an approximate 3×EC50 concentration of each agonist (Pam2CSK4 or Pam3CSK4) was added to the wells containing test compounds or the vehicle control. The plates were then incubated at 37° C./5% CO2 for 18 h. For each assay run, non-treated HEK-Blue hTLR2 cells were treated with serial dilutions of agonists to determine EC50 values for the respective run.
(§5) On day 2, secreted alkaline phosphatase (SEAP) activity was detected in cell culture supernatants. In brief, 20 μL was collected from each well and transferred to a 96-well plate. Next, 200 μL of Quanti-Blue detection reagent was added to each well. Plates were incubated at room temperature for 15 min. and SEAP activity was assessed by spectrophotometer OD reading at 655 nm. […] IC50 values were calculated based on 8-point dilutions for each compound.

human TLR2 [2] = biological target: T1, human TLR2; assay: HEK-Blue hTLR2 antagonism assay (SEAP reporter) with agonist Pam3CSK4 (TLR1/2 agonist); format: cell-based; settings: Table A; HEK-Blue hTLR2 cells, ~3×EC50 Pam3CSK4, 18 h, SEAP OD 655 nm, 8-point dilutions
Description: as §1, §2, §3, §4, §5

T1 sequence (O60603 21-784): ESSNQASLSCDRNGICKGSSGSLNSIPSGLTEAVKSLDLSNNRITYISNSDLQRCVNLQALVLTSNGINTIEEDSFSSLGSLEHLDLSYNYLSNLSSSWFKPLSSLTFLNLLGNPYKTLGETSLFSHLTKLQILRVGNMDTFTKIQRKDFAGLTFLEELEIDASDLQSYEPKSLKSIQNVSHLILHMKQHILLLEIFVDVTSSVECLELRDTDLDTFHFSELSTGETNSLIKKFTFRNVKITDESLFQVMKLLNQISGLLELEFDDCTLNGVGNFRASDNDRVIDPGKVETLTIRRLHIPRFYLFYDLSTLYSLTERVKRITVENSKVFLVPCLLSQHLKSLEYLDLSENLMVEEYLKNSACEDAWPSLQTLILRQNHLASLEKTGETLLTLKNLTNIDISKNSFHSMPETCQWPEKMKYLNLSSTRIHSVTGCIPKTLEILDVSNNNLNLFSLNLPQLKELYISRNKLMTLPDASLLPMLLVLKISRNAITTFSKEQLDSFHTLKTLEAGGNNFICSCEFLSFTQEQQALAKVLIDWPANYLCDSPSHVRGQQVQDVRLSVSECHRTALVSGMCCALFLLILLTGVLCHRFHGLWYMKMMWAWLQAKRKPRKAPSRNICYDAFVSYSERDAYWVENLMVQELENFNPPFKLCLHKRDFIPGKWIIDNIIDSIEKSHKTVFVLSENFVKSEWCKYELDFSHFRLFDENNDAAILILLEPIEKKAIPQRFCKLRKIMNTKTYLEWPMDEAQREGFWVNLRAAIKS

SMILES	IC50 (human TLR2 [1])	IC50 (human TLR2 [2])
COc1cc(-c2cnn(-c3cccc(Cl)c3)c2)cc(C=O)c1O [Compound A3, 5-(1-(3-chlorophenyl)-1H-pyrazol-4-yl)-2-hydroxy-3-methoxybenzaldehyde]	9.9 µM	8.3 µM
COc1cc(-c2cnn(Cc3ccccc3)c2)cc(C=O)c1O [Compound A4, 5-(1-benzyl-1H-pyrazol-4-yl)-2-hydroxy-3-methoxybenzaldehyde]	8.5 µM	10.5 µM
COc1cc(-c2cnn(C3CCOCC3)c2)cc(C=O)c1O [Compound A5, 2-hydroxy-3-methoxy-5-(1-(tetrahydro-2H-pyran-4-yl)-1H-pyrazol-4-yl)benzaldehyde]	> 100 µM	> 100 µM
COc1cc(-c2cnn(-c3ccc(F)cc3)c2)cc(C=O)c1O [Compound A6, 5-(1-(4-fluorophenyl)-1H-pyrazol-4-yl)-2-hydroxy-3-methoxybenzaldehyde]	14.1 µM	12 µM
COc1cc(-c2cnn(-c3cccc(C(F)(F)F)c3)c2)cc(C=O)c1O [Compound A9, 2-hydroxy-3-methoxy-5-(1-(3-(trifluoromethyl)phenyl)-1H-pyrazol-4-yl)benzaldehyde]	3.8 µM	5.1 µM
COc1ccc(Cn2cc(-c3cc(C=O)c(O)c(OC)c3)cn2)cc1 [Compound A10, 2-hydroxy-3-methoxy-5-(1-(4-methoxybenzyl)-1H-pyrazol-4-yl)benzaldehyde]	5.2 µM	5.2 µM
Cc1cc(-c2cnn(-c3ccccc3)c2)cc(Cl)c1O [Compound A17, 2-chloro-6-methyl-4-(1-phenyl-1H-pyrazol-4-yl)phenol]	52.6 µM	43.4 µM
Oc1c(F)cc(-c2cnn(-c3ccccc3)c2)cc1F [Compound A18, 2,6-difluoro-4-(1-phenyl-1H-pyrazol-4-yl)phenol]	> 100 µM	> 100 µM
Oc1c(F)cc(-c2cnn(-c3ccc(N4CCCC4)cc3)c2)cc1C1OCCCO1 [Compound A34, 2-(1,3-dioxan-2-yl)-6-fluoro-4-(1-(4-(pyrrolidin-1-yl)phenyl)-1H-pyrazol-4-yl)phenol]	6.9 µM	3.9 µM
CN1CCN(/N=C/c2cc(-c3cnn(-c4ccc(N5CCCC5)cc4)c3)cc(F)c2O)CC1 [Compound A35, (E)-2-fluoro-6-(((4-methylpiperazin-1-yl)imino)methyl)-4-(1-(4-(pyrrolidin-1-yl)phenyl)-1H-pyrazol-4-yl)phenol]	1.6 µM	0.7 µM
Oc1c(F)cc(-c2cnn(-c3ccc(N4CCCC4)cc3)c2)cc1/C=N/N1CCN(C2CC2)CC1 [Compound A36, (E)-2-(((4-cyclopropylpiperazin-1-yl)imino)methyl)-6-fluoro-4-(1-(4-(pyrrolidin-1-yl)phenyl)-1H-pyrazol-4-yl)phenol]	> 100 µM	> 100 µM
Oc1c(F)cc(-c2cnn(-c3ccc(N4CCCC4)cc3)c2)cc1/C=N/N1CCOCC1 [Compound A37, (E)-2-fluoro-6-((morpholinoimino)methyl)-4-(1-(4-(pyrrolidin-1-yl)phenyl)-1H-pyrazol-4-yl)phenol]	> 100 µM	> 100 µM
Oc1c(F)cc(-c2cnn(-c3ccc(N4CCCC4)cc3)c2)cc1/C=N/Oc1ccccc1 [Compound A40, (E)-3-fluoro-2-hydroxy-5-(1-(4-(pyrrolidin-1-yl)phenyl)-1H-pyrazol-4-yl)benzaldehyde O-phenyl Oxime]	7.2 µM	2.7 µM
O=Cc1cc(-c2ncc(-c3ccccc3)o2)cc(F)c1O [Compound A89, 3-fluoro-2-hydroxy-5-(5-phenyloxazol-2-yl)benzaldehyde]	> 100 µM	> 100 µM
O=Cc1cc(-c2nc(-c3ccccc3)co2)cc(F)c1O [Compound A90, 3-fluoro-2-hydroxy-5-(4-phenyloxazol-2-yl)benzaldehyde]	6.5 µM	4.5 µM
O=Cc1cc(-c2csc(-c3ccc(Cl)cc3)n2)cc(F)c1O [Compound A92, 5-(2-(4-chlorophenyl)thiazol-4-yl)-3-fluoro-2-hydroxybenzaldehyde]	3.5 µM	0.9 µM
O=Cc1cc(-c2csc(-c3ccc(N4C[C@H]5CCC[C@H]5C4)cc3)n2)cc(F)c1O [Compound A97, 3-fluoro-5-(2-(4-((3aR,6aS)-hexahydrocyclopenta[c]pyrrol-2(1H)-yl)phenyl)thiazol-4-yl)-2-hydroxybenzaldehyde]	0.9 µM	0.3 µM

Further lines, results first:

IC50 (human TLR2 [1])	IC50 (human TLR2 [2])	SMILES
2.3 µM	2 µM	O=Cc1cc(-c2cnn(-c3ccccc3)c2)cc(F)c1O [Compound A11, 3-fluoro-2-hydroxy-5-(1-phenyl-1H-pyrazol-4-yl)benzaldehyde]
0.5 µM	0.2 µM	O=Cc1cc(-c2cnn(-c3ccc(N4CCCCC4)cc3)c2)cc(F)c1O [Compound A20, 3-fluoro-2-hydroxy-5-(1-(4-(piperidin-1-yl)phenyl)-1H-pyrazol-4-yl)benzaldehyde]
2.6 µM	1.1 µM	O=Cc1cc(-c2cnn(-c3ccc(N4CCOCC4)cc3)c2)cc(F)c1O [Compound A21, 3-fluoro-2-hydroxy-5-(1-(4-morpholinophenyl)-1H-pyrazol-4-yl)benzaldehyde]
0.8 µM	0.9 µM	O=Cc1cc(-c2cnn(-c3cccc(N4CCCCC4)c3)c2)cc(F)c1O [Compound A23, 3-fluoro-2-hydroxy-5-(1-(3-(piperidin-1-yl)phenyl)-1H-pyrazol-4-yl)benzaldehyde]
4.3 µM	5.4 µM	O=Cc1cc(-c2cnn(-c3cccc(N4CCOCC4)c3)c2)cc(F)c1O [Compound A24, 3-fluoro-2-hydroxy-5-(1-(3-morpholinophenyl)-1H-pyrazol-4-yl)benzaldehyde]
0.9 µM	0.8 µM	O=Cc1cc(-c2ccn(-c3ccc(N4CCCCC4)cc3)n2)cc(F)c1O [Compound A28, 3-fluoro-2-hydroxy-5-(1-(4-(piperidin-1-yl)phenyl)-1H-pyrazol-3-yl)benzaldehyde]
6.4 µM	7.6 µM	O=Cc1cc(-c2ccn(-c3ccc(N4CCOCC4)cc3)n2)cc(F)c1O [Compound A29, 3-fluoro-2-hydroxy-5-(1-(4-morpholinophenyl)-1H-pyrazol-3-yl)benzaldehyde]
2.1 µM	2.2 µM	O=Cc1cc(-c2ccn(-c3cccc(N4CCCC4)c3)n2)cc(F)c1O [Compound A30, 3-fluoro-2-hydroxy-5-(1-(3-(pyrrolidin-1-yl)phenyl)-1H-pyrazol-3-yl)benzaldehyde]
3.4 µM	6.2 µM	O=Cc1cc(-c2ccn(-c3cccc(N4CCCCC4)c3)n2)cc(F)c1O [Compound A31, 3-fluoro-2-hydroxy-5-(1-(3-(piperidin-1-yl)phenyl)-1H-pyrazol-3-yl)benzaldehyde]
12.7 µM	17.4 µM	O=Cc1cc(-c2ccn(-c3cccc(N4CCOCC4)c3)n2)cc(F)c1O [Compound A32, 3-fluoro-2-hydroxy-5-(1-(3-morpholinophenyl)-1H-pyrazol-3-yl)benzaldehyde]
0.4 µM	0.4 µM	CC(=O)N/N=C/c1cc(-c2cnn(-c3ccc(N4CCCC4)cc3)c2)cc(F)c1O [Compound A38, N′-(3-fluoro-2-hydroxy-5-(1-(4-(pyrrolidin-1-yl)phenyl)-1H-pyrazol-4-yl)benzylidene)acetohydrazide]
0.5 µM	0.5 µM	Oc1c(F)cc(-c2cnn(-c3ccc(N4CCCC4)cc3)c2)cc1/C=N/c1ccccc1 [Compound A39, (E)-2-fluoro-6-((phenylimino)methyl)-4-(1-(4-(pyrrolidin-1-yl)phenyl)-1H-pyrazol-4-yl)phenol]
1.3 µM	1.3 µM	O=Cc1cc(-c2cn(-c3cccc(N4CCCC4)c3)nn2)cc(F)c1O [Compound A45, 3-fluoro-2-hydroxy-5-(1-(3-(pyrrolidin-1-yl)phenyl)-1H-1,2,3-triazol-4-yl)benzaldehyde]
4.1 µM	0.9 µM	O=Cc1cc(-c2ccc(-c3ccc(N4CCCC4)cc3)s2)cc(F)c1O [Compound A50, 3-fluoro-2-hydroxy-5-(5-(4-(pyrrolidin-1-yl)phenyl)thiophen-2-yl)benzaldehyde]
